Results as given in patent publication US20080206311A1, “Sucrase Activity Inhibitor, Glucoamylase Activity Inhibitor and Food and Feed Containing the Same” (MITSUI SUGAR CO., LTD., priority 2005, published 2008).
Blank lines part the entries; values can stand above or below the molecule they belong to.

Experiments:
sucrase = molecular target: T1, sucrase (Rattus norvegicus, UniProt P23739); experiment: Sucrase activity inhibition with rat small-intestinal enzyme liquid, substrate sucrose; assay type: biochemical
T1 construct: This liquid contained a mixture of enzymes present in small intestine, such as sucrose, glucoamylase, maltase, and isomaltase; tissue Sigma Corporation; host or cells: rat small intestine (acetone powder), buffer extract, unpurified
T1 sequence (P23739 whole entry): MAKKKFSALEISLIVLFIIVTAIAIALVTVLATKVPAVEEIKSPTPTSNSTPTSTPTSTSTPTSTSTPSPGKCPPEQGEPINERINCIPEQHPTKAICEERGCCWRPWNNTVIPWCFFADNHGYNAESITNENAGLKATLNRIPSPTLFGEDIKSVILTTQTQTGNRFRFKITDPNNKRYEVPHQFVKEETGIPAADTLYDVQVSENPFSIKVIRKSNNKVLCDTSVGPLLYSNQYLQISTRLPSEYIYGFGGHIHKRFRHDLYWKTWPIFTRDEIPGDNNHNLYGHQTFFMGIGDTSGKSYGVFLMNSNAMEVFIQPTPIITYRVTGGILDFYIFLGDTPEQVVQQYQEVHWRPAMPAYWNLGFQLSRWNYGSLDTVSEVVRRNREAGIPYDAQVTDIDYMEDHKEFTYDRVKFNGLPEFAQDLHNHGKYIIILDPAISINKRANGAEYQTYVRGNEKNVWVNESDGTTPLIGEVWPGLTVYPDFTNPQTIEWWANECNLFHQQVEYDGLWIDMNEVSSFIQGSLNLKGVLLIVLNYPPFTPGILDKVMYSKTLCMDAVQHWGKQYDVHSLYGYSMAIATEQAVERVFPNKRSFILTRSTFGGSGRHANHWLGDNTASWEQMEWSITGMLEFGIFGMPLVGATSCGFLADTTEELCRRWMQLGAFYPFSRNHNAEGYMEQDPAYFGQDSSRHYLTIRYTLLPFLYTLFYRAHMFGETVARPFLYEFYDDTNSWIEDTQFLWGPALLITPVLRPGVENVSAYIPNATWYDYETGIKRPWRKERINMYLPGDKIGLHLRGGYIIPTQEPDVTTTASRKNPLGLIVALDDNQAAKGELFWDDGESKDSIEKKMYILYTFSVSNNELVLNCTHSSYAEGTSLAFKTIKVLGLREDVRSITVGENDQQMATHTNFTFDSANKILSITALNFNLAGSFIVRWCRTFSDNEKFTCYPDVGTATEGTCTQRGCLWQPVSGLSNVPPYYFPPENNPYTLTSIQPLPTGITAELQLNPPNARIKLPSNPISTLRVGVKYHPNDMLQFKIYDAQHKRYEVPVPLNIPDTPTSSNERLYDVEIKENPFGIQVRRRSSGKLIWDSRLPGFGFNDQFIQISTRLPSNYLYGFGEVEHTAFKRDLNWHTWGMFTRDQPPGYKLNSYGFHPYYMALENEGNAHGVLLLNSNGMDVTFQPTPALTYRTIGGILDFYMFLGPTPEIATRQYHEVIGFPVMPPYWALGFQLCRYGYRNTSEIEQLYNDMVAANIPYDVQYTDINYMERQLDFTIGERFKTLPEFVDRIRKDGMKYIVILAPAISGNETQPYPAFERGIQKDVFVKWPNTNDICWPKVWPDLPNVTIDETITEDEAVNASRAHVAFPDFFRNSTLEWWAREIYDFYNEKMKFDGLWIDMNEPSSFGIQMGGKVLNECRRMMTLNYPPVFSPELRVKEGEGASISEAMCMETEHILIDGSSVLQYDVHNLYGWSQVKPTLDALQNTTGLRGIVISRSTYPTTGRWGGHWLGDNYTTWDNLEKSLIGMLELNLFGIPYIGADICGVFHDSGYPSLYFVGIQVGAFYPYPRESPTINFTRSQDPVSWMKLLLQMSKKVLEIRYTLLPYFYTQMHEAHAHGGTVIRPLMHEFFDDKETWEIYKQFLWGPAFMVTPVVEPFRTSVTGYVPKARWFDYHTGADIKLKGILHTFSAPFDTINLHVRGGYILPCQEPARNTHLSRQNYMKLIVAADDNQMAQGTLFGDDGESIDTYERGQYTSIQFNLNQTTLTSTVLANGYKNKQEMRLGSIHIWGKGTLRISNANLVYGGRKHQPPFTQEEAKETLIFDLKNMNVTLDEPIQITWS
Protocol: (§1) Palatinose (trade name: Palatinose IC, ex Shin Mitsui Sugar Co., Ltd.) (test sample) was used as a sample for investigating each enzyme activity inhibitory effect. Maltose and sucrose were used as substrates for maltase and sucrose, respectively. The test sample and the substrates were dissolved in 0.1 M phosphate buffer (pH 6.8) at the concentration shown in Table 1 below to prepare test solutions (Solutions 4 and 5). Also, the test sample or the substrates were dissolved in 0.1 M phosphate buffer (pH 6.8), respectively to at the concentration shown in Table 1 below to prepare control solutions (Solution 1 for the test sample and Solutions 2 and 3 for the substrates).
(§2) Two grams of rat small-intestinal acetone powder (ex Sigma Corporation) were dissolved in 20 ml of 0.1 M phosphate buffer (pH 6.8), left standing one day at 5° C., and subsequently subjected to centrifugal separation (8000 rpm×15 min.). The supernatant was filtered through a 0.8 μm membrane filter to obtain a small-intestinal enzyme liquid. This liquid contained a mixture of enzymes present in small intestine, such as sucrose, glucoamylase, maltase, and isomaltase.
(§3) Each 0.25 ml of the small-intestinal enzyme liquid was added to each 5 ml of Solutions 1 through 5 and placed in a water bath at 37° C. to allow them to react for 60 min. while shaken at 60 strokes/min. After the reaction, they were heated in a boiling water bath for 3 min. for inactivation of the enzymes.
(§4) The glucose concentration in each solution after the reaction was measured using the F-kit Glucose (ex Roche). A liberated glucose concentration (g/l) was calculated by subtracting the blank value (0.1 M phosphate buffer alone) and the concentration of glucose originally contained in the test sample from each glucose concentration measured.
(§5) Next, each of the liberated glucose concentration was input in the following equation to obtain decomposition inhibition ratio for maltase and sucrose. In the present tests, the substrates and the inhibitors were decomposed by enzymes present in the small-intestinal enzyme liquid. However, the enzymes decomposing the substrates are different from the enzymes decomposing the inhibitors. The decomposition inhibition ratio was determined as a measure for the inhibitory effect. When the inhibitor was added, the glucose concentration was lower than that seen when the substrate alone was reacted. A higher decomposition inhibition ratio means a stronger inhibitory effect.
(§6) Decomposition inhibition ratio,%={(A+B)−(AB)}+(A+B)×100 [Equation 1]
(§7) wherein (A+B) indicates a sum of a liberated glucose concentration in the control solution containing the test sample alone after the reaction (A) and a liberated glucose concentration in the control solution containing the substrate alone after the reaction (B); and (AB) indicates a liberated glucose concentration in the test solution containing the test sample (A) and the substrate (B), after the reaction.
The procedures in Example 1 were repeated with the exception that the test solutions contained 5% of sucrose and 0.5%, 1.0%, 3.0% or 5.0% of palatinose to examine intensity of the sucrose activity inhibition. A control solution contained 5% of sucrose in 0.1 M phosphate buffer (pH 6.8).
The procedures in Example 1 were repeated with the exception that palatinit and palatinose were used as test samples and sucrose was used as a substrate. The test samples and the substrate were dissolved in 0.1 M phosphate buffer (pH 6.8) to attain the concentration shown in Table 3 to thereby prepare two test solutions. Besides, each one of the test samples or the substrate was dissolved in 0.1 M phosphate buffer (pH 6.8) to attain the concentration shown in Table 3 to thereby prepare control solutions. Each 5 ml of the aforementioned test solutions or the control solutions was subjected to the enzymatic reaction according to the same procedures as in Example 1. The glucose concentration and the fructose concentration were measured. […]

lactase = molecular target: T2, lactase (Rattus norvegicus, UniProt Q02401); experiment: Lactase activity inhibition with rat small-intestinal enzyme liquid, substrate lactose; assay type: biochemical; details: 5% lactose + 5% test sample
T2 construct: tissue Sigma Corporation; host or cells: rat small intestine (acetone powder), buffer extract, unpurified
T2 sequence (Q02401 868-1928): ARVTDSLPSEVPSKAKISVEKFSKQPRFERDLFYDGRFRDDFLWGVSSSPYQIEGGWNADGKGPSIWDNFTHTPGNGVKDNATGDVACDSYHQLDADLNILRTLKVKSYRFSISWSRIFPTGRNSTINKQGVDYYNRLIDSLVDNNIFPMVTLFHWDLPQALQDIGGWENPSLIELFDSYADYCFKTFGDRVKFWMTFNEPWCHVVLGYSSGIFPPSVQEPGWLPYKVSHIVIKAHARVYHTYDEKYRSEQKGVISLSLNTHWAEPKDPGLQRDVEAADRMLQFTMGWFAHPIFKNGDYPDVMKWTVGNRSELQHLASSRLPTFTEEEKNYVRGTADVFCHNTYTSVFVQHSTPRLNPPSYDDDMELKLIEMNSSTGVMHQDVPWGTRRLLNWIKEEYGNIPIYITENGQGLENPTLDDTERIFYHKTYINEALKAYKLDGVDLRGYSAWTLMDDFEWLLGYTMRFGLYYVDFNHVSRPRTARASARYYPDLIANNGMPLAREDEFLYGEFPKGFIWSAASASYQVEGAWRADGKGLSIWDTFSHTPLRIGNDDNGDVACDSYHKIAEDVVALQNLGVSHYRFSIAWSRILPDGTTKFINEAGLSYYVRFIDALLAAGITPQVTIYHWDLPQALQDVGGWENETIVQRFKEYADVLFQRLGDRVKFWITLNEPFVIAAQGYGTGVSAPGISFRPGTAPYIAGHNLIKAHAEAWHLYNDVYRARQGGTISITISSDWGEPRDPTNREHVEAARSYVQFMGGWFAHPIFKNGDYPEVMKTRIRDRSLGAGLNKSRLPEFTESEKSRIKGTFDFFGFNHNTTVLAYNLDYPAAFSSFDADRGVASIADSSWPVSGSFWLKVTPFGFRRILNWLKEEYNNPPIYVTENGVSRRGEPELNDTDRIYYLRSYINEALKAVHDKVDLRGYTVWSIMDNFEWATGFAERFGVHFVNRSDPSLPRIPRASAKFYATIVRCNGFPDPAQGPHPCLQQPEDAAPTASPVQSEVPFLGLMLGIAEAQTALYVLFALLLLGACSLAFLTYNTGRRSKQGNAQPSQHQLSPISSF
Protocol: as §2, §3, §4, §5, §6, §7
(§8) The procedures in Example 1 were repeated with the exception that palatinit, palatinose or isomaltose was used as a test sample and lactose was used as a substrate. The test samples and the substrate were dissolved in 0.1 M phosphate buffer (pH 6.8) to attain the concentration shown in Table 5 to thereby prepare three test solutions. Besides, each of the test samples or the substrate was dissolved in 0.1 M phosphate buffer (pH 6.8) to attain the concentration shown in Table 5 to thereby prepare control solutions. Each 5 ml of the aforementioned test solutions and the control solutions was subjected to the enzymatic reaction according to the same procedures as in Example 1. The glucose concentration, the fructose concentration and the galactose concentration were measured. The galactose concentration was measured using F-kit Galactose (ex Roche). The liberated galactose concentration, g/l, was calculated by subtracting the blank value (0.1 M phosphate buffer alone) from the measured galactose concentration.

[1] = tested on: small-intestinal enzyme liquid; experiment: Decomposition of a saccharide alone (control solution) by small-intestinal enzyme liquid; assay type: biochemical, rat; details: 5% saccharide alone; for Liberated galactose concentration: Test Example 3
Protocol: as §1, §2, §3, §4
The fructose concentration was measured using the F-kit Fructose (ex Roche). The liberated fructose concentration, g/l, was obtained by subtracting the blank value (0.1 M phosphate buffer alone) from the resultant fructose concentration.
as §8

glucoamylase = experiment: Glucoamylase activity inhibition with rat small-intestinal enzyme liquid, substrate soluble starch; assay type: biochemical; details: 5% soluble starch + 5% test sample
Protocol: as §2, §3, §4, §5, §6, §7
The procedures in Example 1 were repeated with the exception that palatinose and palatinit were used as a test sample and soluble starch was used as a substrate. The test samples and the substrate were dissolved in 0.1 M phosphate buffer (pH 6.8) to attain the concentration shown in Table 6 to thereby prepare two test solutions. Besides, each of the test samples or the substrate was dissolved in 0.1 M phosphate buffer (pH 6.8) to attain the concentration shown in Table 6 to thereby prepare control solutions. Each 5 ml of the aforementioned test solutions and the control solutions was subjected to the enzymatic reaction according to the same procedures as in Example 1 and the liberated glucose concentration and the decomposition inhibition ratio were measured.
The procedures in Example 1 were repeated with the exception that trehalulose was used as a test sample and soluble starch was used as a substrate. The test sample and the substrate were dissolved in 0.1 M phosphate buffer (pH 6.8) to attain the concentration shown in Table 9 to thereby prepare a test solution. Besides, the test sample or the substrate was dissolved in 0.1 M phosphate buffer (pH 6.8) to attain the concentration shown in Table 9 to thereby prepare control solutions. Each 5 ml of the aforementioned test solution and the control solutions was subjected to the enzymatic reaction according to the same procedures as in Example 1 and the liberated glucose concentration and the decomposition inhibition ratio were measured.
The procedures in Example 1 were repeated with the exception that trehalose was used as a test sample and soluble starch was used as a substrate. […]

[2] = 5% sucrose + 5% test sample, Example 3 / Test Example 2
[3] = 5% sucrose + 5% test sample, Example 5 / Test Example 4

Liberated glucose concentration ([1]; 37° C., 60 min, pH 6.8, Example 1 / Test Example 1): 4.956 ± 0.423 g/L
Molecule: OC[C@H]1O[C@H](O[C@H]2[C@H](O)[C@@H](O)[C@H](O)O[C@@H]2CO)[C@H](O)[C@@H](O)[C@@H]1O [maltose]

Liberated glucose concentration ([1]; Example 4): 4.657 g/L
Liberated glucose concentration ([1]; Example 6 / Test Example 5): 2.400 g/L
Molecule: soluble starch

Continued, molecule first:

Molecule: OC[C@H]1O[C@H](OC[C@H]2OC(O)[C@H](O)[C@@H](O)[C@@H]2O)[C@H](O)[C@@H](O)[C@@H]1O (stereo partly drawn) [isomaltose, reference compound]
Total concentration of liberated monosaccharides (glucose + fructose) (sucrase; 5% sucrose + 5% isomaltose): 2.88 g/L
Sucrase activity inhibitory effect (in words) (sucrase; 5% sucrose + 5% test sample): has a sucrose activity inhibitory effect
Decomposition inhibition ratio, %, against sucrase (sucrase; [2]): 31%
Liberated fructose concentration (sucrase; [2]): 0.70 g/L
Liberated glucose concentration (sucrase; [2]): 2.18 g/L
Decomposition inhibition ratio, %, against lactase (lactase): −1%
Lactase activity inhibitory effect (in words) (lactase): no lactose inhibitory effect was appreciable
Liberated fructose concentration (lactase): 0.00 g/L
Liberated galactose concentration (lactase): 0.06 g/L
Liberated glucose concentration (lactase): 2.41 g/L
Liberated fructose concentration ([1]; Example 3 / Test Examples 2, 3): 0.02 g/L
Liberated glucose concentration ([1]; Example 3 / Test Examples 2, 3): 2.14 g/L
Liberated galactose concentration [1]: 0.00 g/L

Molecule: OC[C@H]1O[C@@H](O[C@H]2[C@H](O)[C@@H](O)C(O)O[C@@H]2CO)[C@H](O)[C@@H](O)[C@H]1O (stereo partly drawn) [lactose]
Liberated fructose concentration ([1]; Example 3 / Test Examples 2, 3): 0.00 g/L
Liberated glucose concentration ([1]; Example 3 / Test Examples 2, 3): 0.23 g/L
Liberated galactose concentration [1]: 0.16 g/L

Molecule: OC[C@H]1O[C@H](O[C@H]2O[C@H](CO)[C@@H](O)[C@H](O)[C@H]2O)[C@H](O)[C@@H](O)[C@@H]1O [trehalose, reference compound]
Sucrase activity inhibitory effect (in words) (sucrase; 5% sucrose + 5% test sample): substantially no sucrose activity inhibitory effect
Decomposition inhibition ratio, %, against sucrase (sucrase; [3]): 49%
Liberated glucose concentration (sucrase; [3]): 1.683 g/L
Liberated glucose concentration ([1]; Example 5 / Test Example 4, sucrase activity inhibition test): 1.656 g/L
Liberated glucose concentration ([1]; Example 6 / Test Example 5, glucoamylase activity inhibition test): 0.333 g/L
Glucoamylase activity inhibitory effect (in words) (glucoamylase): has a glucoamylase activity inhibitory effect, but the effect is very weak
Decomposition inhibition ratio, %, against glucoamylase (glucoamylase; Example 6 / Test Example 5): 14%
Liberated glucose concentration (glucoamylase; Example 6 / Test Example 5): 2.349 g/L
